Tested on: NOMO1
Experiment: cell viability relative to DMSO control; higher = less cytotoxic
Settings: 48 h
Procedure, shortened: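 Viability is a per-plate percentage relative to DMSO wells, with cell-free wells as background. CellTiter-Glo One luminescence was read after 48 h at 37°C on 1536-well plates (5 μl) of NOMO1 or SEM (500 cells/well) or P12-Ichikawa (1000 cells/well) leukemia cells. The cells had been adapted for at least four passages in each medium and pin-dosed with library compounds in DMSO from 47 μM to 0.79 nM in 11 threefold steps.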

[1] = HPLM + 10% dialyzed FBS, 0.000781 µM
[2] = HPLM + 10% dialyzed FBS, 0.00234 µM
[3] = HPLM + 10% dialyzed FBS, 0.00702 µM
[4] = HPLM + 10% dialyzed FBS, 0.0211 µM
[5] = HPLM + 10% dialyzed FBS, 0.0632 µM
[6] = HPLM + 10% dialyzed FBS, 0.19 µM
[7] = HPLM + 10% dialyzed FBS, 0.569 µM
[8] = HPLM + 10% dialyzed FBS, 1.71 µM
[9] = HPLM + 10% dialyzed FBS, 5.12 µM
[10] = HPLM + 10% dialyzed FBS, 15.4 µM
[11] = HPLM + 10% dialyzed FBS, 46.1 µM
[12] = RPMI 5 mM glucose + 10% FBS, 0.000781 µM
[13] = RPMI 5 mM glucose + 10% FBS, 0.00234 µM
[14] = RPMI 5 mM glucose + 10% FBS, 0.00702 µM
[15] = RPMI 5 mM glucose + 10% FBS, 0.0211 µM
[16] = RPMI 5 mM glucose + 10% FBS, 0.0632 µM
[17] = RPMI 5 mM glucose + 10% FBS, 0.19 µM
[18] = RPMI 5 mM glucose + 10% FBS, 0.569 µM
[19] = RPMI 5 mM glucose + 10% FBS, 1.71 µM
[20] = RPMI 5 mM glucose + 10% FBS, 5.12 µM
[21] = RPMI 5 mM glucose + 10% FBS, 15.4 µM
[22] = RPMI 5 mM glucose + 10% FBS, 46.1 µM
[23] = RPMI 5 mM glucose + 10% dialyzed FBS, 0.000781 µM
[24] = RPMI 5 mM glucose + 10% dialyzed FBS, 0.00234 µM
[25] = RPMI 5 mM glucose + 10% dialyzed FBS, 0.00702 µM
[26] = RPMI 5 mM glucose + 10% dialyzed FBS, 0.0211 µM
[27] = RPMI 5 mM glucose + 10% dialyzed FBS, 0.0632 µM
[28] = RPMI 5 mM glucose + 10% dialyzed FBS, 0.19 µM
[29] = RPMI 5 mM glucose + 10% dialyzed FBS, 0.569 µM
[30] = RPMI 5 mM glucose + 10% dialyzed FBS, 1.71 µM
[31] = RPMI 5 mM glucose + 10% dialyzed FBS, 5.12 µM
[32] = RPMI 5 mM glucose + 10% dialyzed FBS, 15.4 µM
[33] = RPMI 5 mM glucose + 10% dialyzed FBS, 46.1 µM

Compound | cell viability [1] [%] | cell viability [2] [%] | cell viability [3] [%] | cell viability [4] [%] | cell viability [5] [%] | cell viability [6] [%] | cell viability [7] [%] | cell viability [8] [%] | cell viability [9] [%] | cell viability [10] [%] | cell viability [11] [%] | cell viability [12] [%] | cell viability [13] [%] | cell viability [14] [%] | cell viability [15] [%] | cell viability [16] [%] | cell viability [17] [%] | cell viability [18] [%] | cell viability [19] [%] | cell viability [20] [%] | cell viability [21] [%] | cell viability [22] [%] | cell viability [23] [%] | cell viability [24] [%] | cell viability [25] [%] | cell viability [26] [%] | cell viability [27] [%] | cell viability [28] [%] | cell viability [29] [%] | cell viability [30] [%] | cell viability [31] [%] | cell viability [32] [%] | cell viability [33] [%]
COc1cc(OC)c(/C=C/[S+](=O)([O-])Cc2ccc(OC)c(NCC(=O)[O][Na])c2)c(OC)c1 | 120 | 113 | 119 | 118 | 126 | 60.3 | 43.7 | 47.7 | 44 | 42.5 | 34.4 | 110 | 104 | 102 | 121 | 109 | 99.6 | 27.6 | 23.9 | 27 | 26.7 | 24.9 | 111 | 128 | 111 | 117 | 122 | 37.5 | 31.7 | 26.1 | 26.2 | 23.6 | 24.1
Cc1cnc(-c2cc(N3CCN(C(=O)CC[S+](C)(=O)[O-])CC3)ncc2Cl)c(C)c1 | 96.3 | 125 | 132 | 126 | 132 | 134 | 127 | 129 | 137 | 134 | 191 |  |  |  |  |  |  |  |  |  |  |  |  |  |  |  |  |  |  |  |  |  | 
C\C1=C(\C=C(C#N)/C(=O)N1)C2=C[N]3C=CN=C3C=C2 | 69.8 | 82.7 | 88.2 | 79.1 | 80.9 | 79.9 | 83.7 | 89.3 | 97.9 | 94.4 | 93 | 85.2 | 82.2 | 80.6 | 80.9 | 84.5 | 80.1 | 94.5 | 72.7 | 81.1 | 84.8 | 78.9 | 78.8 | 81.1 | 88.1 | 83.4 | 84.2 | 84.5 | 90.2 | 92 | 91.3 | 85.3 | 74.6
Cn1cnc2c1c(=O)[nH]c(=O)n2C | 112 | 102 | 102 | 119 | 108 | 110 | 116 | 96.4 | 105 | 78.3 | 5.56 | 99.2 | 110 | 96.2 | 92.6 | 97 | 96.5 | 103 | 88.1 | 99.3 | 91.6 | 7.98 | 101 | 91.7 | 99 | 114 | 109 | 104 | 100 | 102 | 96 | 90 | 9.87
CCC(C)(Oc1ccc(C2(c3ccc(OC(C)(CC)C(=O)O)cc3)CCCCC2)cc1)C(=O)O (centres undefined) | 89.3 | 107 | 89.4 | 108 | 118 | 101 | 93.8 | 124 | 102 | 85.1 | 99.4 | 104 | 101 | 95.5 | 99.2 | 102 | 89.4 | 97.6 | 97.7 | 92.8 | 84 | 84.3 | 100 | 94.4 | 111 | 96.1 | 99.8 | 94 | 107 | 103 | 87 | 93.9 | 101
N=C(NCCCCCCNC(=N)NC(=N)Nc1ccc(Cl)cc1)NC(=N)Nc1ccc(Cl)cc1 | 82 | 88.2 | 100 | 90.4 | 106 | 111 | 105 | 113 | 89 | 87.6 | 56.5 | 75.4 | 92.9 | 79.1 | 96.3 | 96.1 | 85.5 | 93.2 | 88.5 | 91.1 | 87.4 | 30.9 | 79.5 | 88.9 | 90.6 | 90.5 | 105 | 103 | 101 | 105 | 100 | 85.6 | 41.5
OC[C@H]1OCC(O1)[N@@]2C=CC(N)=NC2=O (some centres undefined) | 115 | 127 | 101 | 105 | 117 | 113 | 131 | 86.7 | 121 | 126 | 94.8 | 114 | 123 | 118 | 116 | 114 | 127 | 118 | 113 | 122 | 108 | 108 | 103 | 133 | 112 | 109 | 125 | 111 | 117 | 113 | 120 | 113 | 113

— the supplement of paper PMC11451515
